Data: paper PMC11555526, “Development of 2-Aminoadenine-Based Proteolysis-Targeting Chimeras (PROTACs) as Novel Potent Degraders of Monopolar Spindle 1 and Aurora Kinases” (ACS Pharmacology & Translational Science, 2024)
pEC50: −log10 of the molar value.

Assays:
MV4-11 cells (naive) = assay: alamarBlue cell viability assay; type: cell-based, human; conditions: 72 h treatment, MV4-11 cells (naive); read-out: EC50 (concentration that decreases cell viability by 50%)
How it was run: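 Cells exposed to compound concentration series or vehicle for 72 h (unless otherwise stated); alamarBlue added a few hours before end point. Read-out by fluorescence (ex 550/em 600 nm) or absorbance (570 nm, 600 nm reference).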

TTK = target: T1, TTK (Homo sapiens, UniProt P33981); assay: Immunoblot of TTK in CALU1 cells; type: cell-based; parameters: endogenous in cells; conditions: 6 h
T1 sequence (P33981 1-857): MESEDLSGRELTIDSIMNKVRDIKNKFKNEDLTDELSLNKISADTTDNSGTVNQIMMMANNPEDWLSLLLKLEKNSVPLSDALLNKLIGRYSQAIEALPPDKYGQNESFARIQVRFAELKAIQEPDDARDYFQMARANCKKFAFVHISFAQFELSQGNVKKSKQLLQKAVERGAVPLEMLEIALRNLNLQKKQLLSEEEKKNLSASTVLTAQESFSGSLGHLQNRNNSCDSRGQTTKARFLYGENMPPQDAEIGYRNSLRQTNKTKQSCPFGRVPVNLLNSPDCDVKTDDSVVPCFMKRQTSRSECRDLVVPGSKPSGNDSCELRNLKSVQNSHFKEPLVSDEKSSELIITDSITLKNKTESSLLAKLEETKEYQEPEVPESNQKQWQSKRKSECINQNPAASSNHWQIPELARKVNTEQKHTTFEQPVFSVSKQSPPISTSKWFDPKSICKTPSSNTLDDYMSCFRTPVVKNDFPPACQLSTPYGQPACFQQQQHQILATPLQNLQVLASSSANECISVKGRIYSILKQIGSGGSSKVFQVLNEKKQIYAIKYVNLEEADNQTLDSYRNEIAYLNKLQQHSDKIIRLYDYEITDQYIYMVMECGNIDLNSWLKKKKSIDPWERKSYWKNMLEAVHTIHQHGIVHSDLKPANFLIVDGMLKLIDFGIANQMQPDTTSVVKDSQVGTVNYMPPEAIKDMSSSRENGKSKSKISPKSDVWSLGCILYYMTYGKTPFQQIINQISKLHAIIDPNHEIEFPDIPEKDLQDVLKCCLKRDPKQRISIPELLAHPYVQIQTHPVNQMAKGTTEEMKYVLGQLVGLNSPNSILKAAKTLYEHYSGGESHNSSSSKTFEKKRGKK
Protocol: The cells were treated with compounds or vehicle for indicated time points and lysed in RIPA lysis buffer (50 mM HEPES pH 7.9, 140 mM NaCl, 1 mM EDTA, 1% Triton X-100, 0.1% SDS, 0.1% sodium deoxycholate) containing protease and phosphatase inhibitors (Sigma) for 20 min at 4 °C. Cell lysates were cleared by centrifugation, and protein concentration was determined with bicinchoninic acid assay. Equal amounts of protein per sample were separated by Bis-Tris-PAGE and transferred to PVDF membranes (Millipore). The membranes were blocked with 5% (w/v) nonfat dry milk in TBS-T [20 mM Tris–HCl, pH 7.5, 150 mM NaCl, 0.1% (v/v) Tween-20] for 1 h at room temperature and incubated with primary antibody at 4 °C overnight. Visualization was carried out using horseradish peroxidase (HRP)-labeled secondary antibodies and detected using a chemiluminescent HRP substrate (Millipore) in LAS3000 or LAS4000 mini (Fujifilm). Vinculin, GAPDH, or B-actin were used as a loading control. The loading control was probed along with the target antibody by cutting the membrane. For targets with similar molecular weights, the samples were run in duplicate and probed with their respective loading controls, although only one control was shown in the figure for all targets. The signal was quantified using ImageJ or Image Studio Lite against the corresponding loading controls. Antibodies used in this study were as follows: Aurora A/AIK (Cell Signaling Technology, 3092), Aurora B (Bethyl Laboratories, A300–431A), TTK (Santa Cruz Biotechnology, sc-56968), GAPDH (Cell Signaling Technology, 2118), B-Actin (Sigma, A5441), and Vinculin (Sigma, V9131). […]
Figure S2: Cellular degradation studies of SF1-based compounds. […]
(E), 18 (F), and 14 or 20 (G) for 6 h and compared with vehicle treated cells. (H-J) Immunoblots of TTK and AURKB. CALU1 cells were treated with indicated concentration of 14 or 20 (H), 44 or 47 (I), and 46 (J) for 6 h and compared with DMSO treated cells. All HiBiT data are represented as a mean ±s.d. from n=2 replicates. […]

[1] = target: T2, TTK (MV4-11^HiBiT-TTK cells) (Homo sapiens, UniProt P33981); assay: HiBiT assay, TTK degradation; type: cell-based; parameters: key to Dmax (maximal degradation) TTK: compounds with degradation less than 15% reported as “inactive”; conditions: 6 h treatment, MV4-11^HiBiT-TTK cells; for DC50: read-out: DC50 (half-maximal degradation concentration) TTK
T2 construct: expressed in transfected cells; host or cells: MV4-11, lentiviral transduction (pRRL-PGK-HiBiT entry vector)
T2 sequence (P33981 1-857): T1 sequence (P33981 1-857)
How it was run: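 MV4-11 lines stably expressing HiBiT-tagged AURKA, AURKB or TTK (lentiviral) were treated with serial compound dilutions for the indicated times. Remaining tagged protein was read by lytic HiBiT luminescence, and DC50 was fitted with a four-parameter dose–response equation using concentrations showing sigmoidal behaviour.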

Structure (SMILES) | pEC50 (MV4-11 cells (naive)) | relative TTK level (immunoblot quantification, DMSO = 1.00) (TTK; 10 µM) | Dmax (maximal degradation) TTK [1] | DC50 [1] [nM] | relative TTK level (immunoblot quantification, DMSO = 1.00) (TTK; 0.1 µM) | relative TTK level (immunoblot quantification, DMSO = 1.00) (TTK; 0.01 µM) | DC50 (half-maximal degradation concentration) TTK [1]
CC(C)S(=O)(=O)c1ccccc1Nc1nc(Nc2ccc(N3CCN(C(=O)CCCC(=O)Nc4cccc5c4C(=O)N(C4CCC(=O)NC4=O)C5=O)CC3)cc2)nc2[nH]cnc12 (stereo not shown) [Compound 14] | 6.67 | 1.00 | 28.50% | 396 | – | – | –
CC(C)S(=O)(=O)c1ccccc1Nc1nc(Nc2ccc(N3CCN(C(=O)CNC(=O)CCCC(=O)Nc4cccc5c4C(=O)N(C4CCC(=O)NC4=O)C5=O)CC3)cc2)nc2[nH]cnc12 (stereo not shown) [Compound 20] | 6.24 | – | 48.33% | 281 | 0.87 | – | –
Cc1ncsc1-c1ccc(CNC(=O)[C@@H]2C[C@@H](O)CN2C(=O)[C@@H](NC(=O)CCCC(=O)N2CCN(c3ccc(Nc4nc(Nc5ccccc5S(=O)(=O)C(C)C)c5nc[nH]c5n4)cc3)CC2)C(C)(C)C)cc1 [Compound 44] | 5.94 | – | inactive | – | 0.79 | 0.79 | – (compounds with degradation less than 25% were not calculated and reported as “–”)
Cc1ncsc1-c1ccc(CNC(=O)[C@@H]2C[C@@H](O)CN2C(=O)[C@@H](NC(=O)COCCOCC(=O)N2CCN(c3ccc(Nc4nc(Nc5ccccc5S(=O)(=O)C(C)C)c5nc[nH]c5n4)cc3)CC2)C(C)(C)C)cc1 [Compound 49] | 5.59 | – | 47.40% | 5710 | – | – | –
